ChEMBL document CHEMBL1770140, “MMP-13 selective α-sulfone hydroxamates: a survey of P1' heterocyclic amide isosteres” (Bioorg Med Chem Lett, 2011)

Tests used:
Collagenase 3 = Collagenase 3 (Homo sapiens, UniProt P45452); test: Inhibition of human MMP-13
Neutrophil collagenase = Neutrophil collagenase (Homo sapiens, UniProt P22894); test: Inhibition of human MMP-8
[1] = target: Matrix metalloproteinase-14 (Homo sapiens, UniProt P50281); test: Inhibition of human MMP-14
Stromelysin-1 = Stromelysin-1 (Homo sapiens, UniProt P08254); test: Inhibition of human MMP-3
Stromelysin-1, sequence (P08254 whole entry): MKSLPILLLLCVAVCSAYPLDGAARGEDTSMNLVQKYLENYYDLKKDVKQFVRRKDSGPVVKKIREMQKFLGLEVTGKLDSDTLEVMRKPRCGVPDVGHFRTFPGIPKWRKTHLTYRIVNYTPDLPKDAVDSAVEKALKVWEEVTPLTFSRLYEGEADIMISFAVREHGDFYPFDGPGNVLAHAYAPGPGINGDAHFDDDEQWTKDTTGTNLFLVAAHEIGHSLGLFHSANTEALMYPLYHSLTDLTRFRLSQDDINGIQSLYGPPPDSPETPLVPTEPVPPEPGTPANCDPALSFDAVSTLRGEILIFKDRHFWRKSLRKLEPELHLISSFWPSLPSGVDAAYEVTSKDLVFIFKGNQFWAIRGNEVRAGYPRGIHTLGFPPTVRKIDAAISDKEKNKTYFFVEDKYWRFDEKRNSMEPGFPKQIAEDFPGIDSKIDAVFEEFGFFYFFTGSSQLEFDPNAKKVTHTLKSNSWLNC

Matrilysin = target: T1, Matrilysin (Homo sapiens, UniProt P09237); test: Inhibition of human MMP-7
T1 sequence (P09237 whole entry): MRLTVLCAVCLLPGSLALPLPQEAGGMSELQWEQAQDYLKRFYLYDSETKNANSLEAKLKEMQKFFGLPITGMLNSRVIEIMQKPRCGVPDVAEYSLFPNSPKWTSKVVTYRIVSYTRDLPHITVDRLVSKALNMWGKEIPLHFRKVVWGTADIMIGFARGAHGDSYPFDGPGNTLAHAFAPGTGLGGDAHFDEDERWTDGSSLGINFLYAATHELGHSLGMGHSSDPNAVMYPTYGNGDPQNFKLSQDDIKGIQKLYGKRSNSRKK

[2] = Half life in rat; type: ADME, organism-based; conditions: in vivo
[3] = Cmax in rat; type: ADME, organism-based; conditions: in vivo
[4] = Bioavailability in rat; type: ADME, organism-based; conditions: in vivo
Interstitial collagenase = target: T2, Interstitial collagenase (Homo sapiens, UniProt P03956); test: Inhibition of human MMP-1
T2 sequence (P03956 whole entry): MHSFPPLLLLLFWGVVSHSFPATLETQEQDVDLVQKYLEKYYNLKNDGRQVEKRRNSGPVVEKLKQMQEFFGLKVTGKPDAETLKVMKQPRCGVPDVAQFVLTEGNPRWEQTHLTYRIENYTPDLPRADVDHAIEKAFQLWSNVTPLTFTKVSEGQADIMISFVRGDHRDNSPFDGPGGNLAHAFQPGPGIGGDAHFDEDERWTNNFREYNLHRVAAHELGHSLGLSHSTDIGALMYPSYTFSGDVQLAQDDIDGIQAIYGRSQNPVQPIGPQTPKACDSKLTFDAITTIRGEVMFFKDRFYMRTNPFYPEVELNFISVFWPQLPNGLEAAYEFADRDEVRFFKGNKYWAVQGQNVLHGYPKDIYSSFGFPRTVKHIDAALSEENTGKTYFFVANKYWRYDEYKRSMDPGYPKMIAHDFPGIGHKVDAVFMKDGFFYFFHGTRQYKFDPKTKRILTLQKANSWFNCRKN

[5] = target: 72 kDa type IV collagenase (Homo sapiens, UniProt P08253); test: Inhibition of human MMP-2
72 kDa type IV collagenase, sequence (P08253 whole entry): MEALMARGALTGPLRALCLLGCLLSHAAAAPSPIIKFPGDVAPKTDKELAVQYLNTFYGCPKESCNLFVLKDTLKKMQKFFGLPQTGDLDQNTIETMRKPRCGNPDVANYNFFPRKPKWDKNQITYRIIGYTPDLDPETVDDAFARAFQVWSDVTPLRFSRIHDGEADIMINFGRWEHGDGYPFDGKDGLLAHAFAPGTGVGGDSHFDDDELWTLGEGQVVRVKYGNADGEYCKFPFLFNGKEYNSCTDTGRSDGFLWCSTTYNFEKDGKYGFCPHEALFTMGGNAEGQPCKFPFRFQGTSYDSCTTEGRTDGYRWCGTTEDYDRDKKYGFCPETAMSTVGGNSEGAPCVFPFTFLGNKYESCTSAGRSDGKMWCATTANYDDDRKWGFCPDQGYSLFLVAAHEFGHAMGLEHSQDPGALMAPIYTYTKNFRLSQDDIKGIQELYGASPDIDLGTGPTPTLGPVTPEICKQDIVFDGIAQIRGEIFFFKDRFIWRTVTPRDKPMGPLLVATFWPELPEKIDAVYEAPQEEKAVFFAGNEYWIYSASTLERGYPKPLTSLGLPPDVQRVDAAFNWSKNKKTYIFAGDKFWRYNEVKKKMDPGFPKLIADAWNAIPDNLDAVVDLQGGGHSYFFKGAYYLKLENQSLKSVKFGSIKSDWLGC

[6] = target: Matrix metalloproteinase-9 (Homo sapiens, UniProt P14780); test: Inhibition of human MMP-9
Matrix metalloproteinase-9, sequence (P14780 whole entry): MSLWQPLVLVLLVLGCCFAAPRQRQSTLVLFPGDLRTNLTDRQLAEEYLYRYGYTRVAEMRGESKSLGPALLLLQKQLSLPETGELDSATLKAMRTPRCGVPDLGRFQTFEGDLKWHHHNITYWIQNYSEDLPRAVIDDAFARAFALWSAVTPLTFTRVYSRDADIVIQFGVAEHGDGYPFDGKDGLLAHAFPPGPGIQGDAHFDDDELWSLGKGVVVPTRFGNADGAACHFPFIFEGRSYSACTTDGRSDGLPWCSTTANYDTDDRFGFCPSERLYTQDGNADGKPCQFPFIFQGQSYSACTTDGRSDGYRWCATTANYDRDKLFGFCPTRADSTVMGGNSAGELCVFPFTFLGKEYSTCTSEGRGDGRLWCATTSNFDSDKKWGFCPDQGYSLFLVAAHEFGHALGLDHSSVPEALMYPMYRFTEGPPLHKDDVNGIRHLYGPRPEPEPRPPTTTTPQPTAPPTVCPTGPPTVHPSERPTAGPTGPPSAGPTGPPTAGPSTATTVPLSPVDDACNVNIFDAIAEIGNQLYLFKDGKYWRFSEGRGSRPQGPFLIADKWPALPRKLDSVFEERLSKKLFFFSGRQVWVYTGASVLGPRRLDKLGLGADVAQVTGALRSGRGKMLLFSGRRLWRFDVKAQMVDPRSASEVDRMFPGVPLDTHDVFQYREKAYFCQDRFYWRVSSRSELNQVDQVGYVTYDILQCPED

[7] = Clearance in rat; type: ADME, organism-based; conditions: in vivo

Neutrophil collagenase, sequence (P22894 whole entry): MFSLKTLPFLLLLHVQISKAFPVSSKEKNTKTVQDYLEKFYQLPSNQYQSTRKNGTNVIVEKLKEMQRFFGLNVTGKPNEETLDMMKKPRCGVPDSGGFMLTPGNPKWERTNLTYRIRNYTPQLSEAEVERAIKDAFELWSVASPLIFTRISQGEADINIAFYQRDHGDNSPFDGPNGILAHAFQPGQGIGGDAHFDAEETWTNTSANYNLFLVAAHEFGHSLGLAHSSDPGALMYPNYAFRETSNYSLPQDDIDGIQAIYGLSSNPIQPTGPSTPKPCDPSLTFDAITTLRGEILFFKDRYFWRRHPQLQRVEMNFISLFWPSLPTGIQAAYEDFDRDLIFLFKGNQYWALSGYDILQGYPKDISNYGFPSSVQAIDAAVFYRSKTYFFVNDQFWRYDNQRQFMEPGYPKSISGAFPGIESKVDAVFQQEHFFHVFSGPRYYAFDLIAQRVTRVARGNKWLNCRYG

Structure (SMILES)	Ki (Collagenase 3) [nM]	Ki (Neutrophil collagenase) [nM]	Ki [1] [nM]	Ki (Stromelysin-1) [nM]	Ki (Matrilysin) [nM]	half-life [2] [h]	Cmax [3] [ng/mL]	bioavailability [4] [%]	Ki (Interstitial collagenase) [nM]	IC50 (Collagenase 3) [nM]	IC50 [5] [nM]	Ki [6] [nM]	Ki [5] [nM]	clearance [7] [mL/min/kg]	IC50 (Neutrophil collagenase) [nM]	IC50 (Stromelysin-1) [nM]	IC50 [6] [nM]	IC50 (Matrilysin) [nM]
COCCN1CCC(C(=O)NO)(S(=O)(=O)c2ccc(OCCCn3nnc(-c4ccc(OC(F)(F)F)cc4)n3)cc2)CC1	0.13	8000	> 10000	8.7	8600	1.3	1400	26	> 10000									
COCCN1CCC(C(=O)NO)(S(=O)(=O)c2ccc(Oc3ccc(OC(F)(F)F)cc3)cc2)CC1					7000	2.9	21900	68	> 10000	< 0.1	< 0.1							
Cc1ccc(-c2nnn(CCCOc3ccc(S(=O)(=O)C4(C(=O)NO)CCOCC4)cc3)n2)nc1	0.66	240	> 10000	44	3000	2	3500	1.7	> 10000			370	110	46				
O=C(NO)C1(S(=O)(=O)c2ccc(OCCCn3nnc(-c4ccc(OC(F)(F)F)cc4)n3)cc2)CCOCC1	0.66	170	> 10000	28	> 10000	2.4	61	32	> 10000			1200	410	12				
O=C(NO)C1(S(=O)(=O)c2ccc(OCCCc3nnnn3-c3ccc(OC(F)(F)F)cc3)cc2)CCOCC1	1.2	72	> 10000	9.9	7100	4	3500	7.3	> 10000			1700	430	42				
COc1ccc(C(=O)N2CCN(c3ccc(S(=O)(=O)C4(C(=O)NO)CCOCC4)cc3)CC2)cc1			> 10000			1.2	4200	14	> 10000	0.7	1300				1200	90	1200	> 10000
COc1ccc(C(=O)NCCCOc2ccc(S(=O)(=O)C3(C(=O)NO)CCOCC3)cc2)cc1	1.6	900	> 10000	900		0.59	0.02		> 10000			> 10000	550					
CCN1CCC(C(=O)NO)(S(=O)(=O)c2ccc(OCCCc3nc(-c4ccc(OC(F)(F)F)cc4)no3)cc2)CC1	2	260		37	> 10000	2.4	2200	28				370	410	19				

Continued, values first:

Ki (Collagenase 3) [nM]	Ki (Neutrophil collagenase) [nM]	Ki [1] [nM]	Ki (Stromelysin-1) [nM]	Ki (Matrilysin) [nM]	half-life [2] [h]	Cmax [3] [ng/mL]	bioavailability [4] [%]	Ki (Interstitial collagenase) [nM]	IC50 (Collagenase 3) [nM]	IC50 [5] [nM]	Ki [6] [nM]	Ki [5] [nM]	clearance [7] [mL/min/kg]	IC50 (Neutrophil collagenase) [nM]	IC50 (Stromelysin-1) [nM]	IC50 [6] [nM]	IC50 (Matrilysin) [nM]	Structure (SMILES)
		> 10000						5600						190	39	1100		COc1ccc(-c2nnn(CCCOc3ccc(S(=O)(=O)C4(C(=O)NO)CCOCC4)cc3)n2)cc1
0.6	250	> 10000	3	970	4.8	3000	5	> 10000			2400	400	63					Cc1ccc(-c2nnnn2CCCOc2ccc(S(=O)(=O)C3(C(=O)NO)CCOCC3)cc2)nc1
	180		31	> 10000	1.4	240	22						14					O=C(NO)C1(S(=O)(=O)c2ccc(OCCCc3nc(-c4ccc(OC(F)(F)F)cc4)no3)cc2)CCOCC1
3.7	140	> 10000	130	> 10000				> 10000			> 10000	9200						O=C(NO)C1(S(=O)(=O)c2ccc(OCCCn3cncc3-c3ccc(OC(F)(F)F)cc3)cc2)CCOCC1
1.7	74	> 10000	59	6000				> 10000			1800	530						O=C(NO)C1(S(=O)(=O)c2ccc(OCCCn3cnc(-c4ccc(OC(F)(F)F)cc4)c3)cc2)CCOCC1
